What was measured:
[1] = biological target: T1, Neutrophil elastase (Homo sapiens) (UniProt P08246); test: Compound was evaluated for inhibitory activity against human leukocyte elastase
T1 sequence (whole entry): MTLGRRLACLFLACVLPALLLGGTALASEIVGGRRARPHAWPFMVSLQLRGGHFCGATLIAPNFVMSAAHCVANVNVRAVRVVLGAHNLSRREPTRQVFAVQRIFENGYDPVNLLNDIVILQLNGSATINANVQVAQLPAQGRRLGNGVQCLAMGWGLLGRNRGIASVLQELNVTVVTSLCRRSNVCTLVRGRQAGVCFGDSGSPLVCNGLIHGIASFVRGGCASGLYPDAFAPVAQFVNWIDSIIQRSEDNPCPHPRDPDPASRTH

[2] = biological target: T2, Cathepsin G (Homo sapiens) (UniProt P08311); test: Compound was evaluated for inhibitory activity towards Cathepsin G
T2 sequence (whole entry): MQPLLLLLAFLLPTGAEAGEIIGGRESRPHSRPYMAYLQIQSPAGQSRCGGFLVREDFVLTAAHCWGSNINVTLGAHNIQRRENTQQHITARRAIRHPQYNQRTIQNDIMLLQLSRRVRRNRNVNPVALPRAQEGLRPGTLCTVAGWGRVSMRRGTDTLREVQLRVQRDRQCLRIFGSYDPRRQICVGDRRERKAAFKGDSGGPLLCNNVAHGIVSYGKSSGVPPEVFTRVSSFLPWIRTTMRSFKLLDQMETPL

[3] = biological target: T3, Myeloblastin (Homo sapiens) (UniProt P24158); test: Compound was evaluated for inhibitory activity against Proteinase 3
T3 sequence (whole entry): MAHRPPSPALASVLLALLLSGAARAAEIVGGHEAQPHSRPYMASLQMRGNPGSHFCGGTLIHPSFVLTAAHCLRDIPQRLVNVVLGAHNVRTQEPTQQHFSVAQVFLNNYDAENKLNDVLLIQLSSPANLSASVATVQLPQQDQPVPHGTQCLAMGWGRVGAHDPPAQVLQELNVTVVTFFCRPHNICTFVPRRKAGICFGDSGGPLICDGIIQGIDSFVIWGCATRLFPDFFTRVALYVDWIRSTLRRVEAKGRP

Compound | K inact/Ki [1] [M⁻¹ s⁻¹] | K inact/Ki [2] [M⁻¹ s⁻¹] | K inact/Ki [3] [M⁻¹ s⁻¹]
CCCCOP(=O)(OCCCC)OCN1C(=O)C(CC(C)C)N(C)S1(=O)=O (centres undefined) | 2.7e+06 | – | –
CC(C)CC1C(=O)N(COP(=O)(Oc2ccccc2)Oc2ccccc2)S(=O)(=O)N1CC1C=CC=C1 (centres undefined) | 4.2e+06 | – | –
CC(C)CC1C(=O)N(COP(=O)(OCc2ccccc2)OCc2ccccc2)S(=O)(=O)N1Cc1ccccc1 (centres undefined) | 6e+06 | 120 | 89100
CC(C)CC1CS(=O)(=O)N(COP(=O)(OCc2ccccc2)OCc2ccccc2)C1=O (centres undefined) | 95000 | – | –
COP(=O)(OC)OCN1C(=O)C(CC(C)C)N(CC2C=CC=C2)S1(=O)=O (centres undefined) | 430000 | – | –
CCCCOP(=O)(OCCCC)OCN1C(=O)C(CC(C)C)N(CC2C=CC=C2)S1(=O)=O (centres undefined) | 2.5e+06 | – | –
CCCCOP(=O)(OCCCC)OCN1C(=O)C(CC(C)C)CS1(=O)=O (centres undefined) | 82000 | – | –
